A word on the IC50: it is the point on the concentration scale where inhibition reaches its midpoint.

Holding throughout (format): cell-based
The subject of one test is DU145. The experiment in a line: In vitro proliferation assay (CellTiter-Glo), DU145. Particulars: Homo sapiens, DU-145; DU145 cells; cultured 72 to 144 hours; CellTiter-Glo cell viability. How it is done:
A panel of human cancer cell lines (DU 145, NCI-N87, and MDA-MB-361) obtained from the American Type Tissue Collection (ATCC) (P.O. Box 1549, Manassa, Va. 20108 (USA)) were used to determine the relative cytotoxicity of tubulysin compounds of the invention. The cells were plated in culture media at a density of 2,000 to 5,000 per well of tissue-culture-treated 96-well plates in a volume of 80 μl and allowed to adhere overnight. A 5× concentration of each compound tested was prepared by diluting the test articles in culture medium. Twenty microliters of each test article was added to cells in duplicate or triplicate such that the final dose curve ranged from 4 μg/ml down to 61 pg/ml in a stepwise 1:4 serial dilution series. The treated cells were cultured at 37° C./5% CO2 for 72 to 144 hours. The CellTiter-Glo Luminescent Viability Assay from Promega was used to determine relative cytotoxicity. Briefly, 100 μl of CellTiter-Glo reagent was added to each well, allowed to incubate for 10 minutes at room temperature with mild shaking and then the […] was read using a Perkin Elmer EnVision luminometer. The percent cell viability was calculated by the following formula: (average luminescence of treated samples/average luminescence of control (untreated) samples)×100. IC50 values were determined using logistic non-linear regression analysis with GraphPad Prism software. Not all compounds were assayed against all cell lines.

The test system of another test is HCT116. Briefly: In vitro proliferation assay (CellTiter-Glo), HCT116. Particulars: Homo sapiens, HCT-116; HCT116 cells; cultured 72 to 144 hours; CellTiter-Glo cell viability. Background: In ATP-based viability assays light output follows the ATP content of the culture.
The next test relates to MB231. The experiment in a line: In vitro proliferation assay (CellTiter-Glo), MB231. The conditions noted are these: Homo sapiens; MB231 cells; cultured 72 to 144 hours; CellTiter-Glo cell viability.

Regarding `CC[C@H](C)[C@H](NC(=O)[C@H]1C[C@H](C)CCN1C)C(=O)N(C)[C@H](C[C@@H](OC(C)=O)c1nc(C(=O)N[C@@H](Cc2ccc(N)cc2)C[C@H](C)C(=O)O)cs1)C(C)C` [Compound 6, (2S,4R)-4-(2-((1R,3R)-1-acetoxy-3-((2S,3S)-2-((2R,4R)-1,4-dimethylpiperidine-2-carboxamido)-N,3-dimethylpentanamido)-4-methylpentyl)thiazole-4-carboxamido)-5-(4-aminophenyl)-2-methylpentanoic acid], the IC50 was determined as 4 nM with DU145, 1.9 nM in the test with HCT116 and 6.6 nM in the test on MB231.
As to `CC[C@H](C)[C@H](NC(=O)C1(CC)CCCCN1C)C(=O)N(CC)[C@H](C[C@@H](OC(C)=O)c1nc(C(=O)N[C@@H](Cc2ccc(N)cc2)C[C@H](C)C(=O)O)cs1)C(C)C` (stereo partly drawn) [Compound 2, (2S,4R)-4-(2-((1R,3R)-1-acetoxy-3-((2S,3S)—N-ethyl-2-(2-ethyl-1-methylpiperidine-2-carboxamido)-3-methylpentanamido)-4-methylpentyl)thiazole-4-carboxamido)-5-(4-aminophenyl)-2-methylpentanoic acid], the half-maximal inhibitory concentration (IC50) with DU145 was determined as 0.5 nM.
Consider `CC[C@H](C)[C@H](NC(=O)[C@@]1(C)CCCCN1C)C(=O)N(CC)[C@H](C[C@@H](OC(C)=O)c1nc(C(=O)N[C@@H](Cc2ccc(N)cc2)C[C@H](C)C(=O)O)cs1)C(C)C` [Compound 3, (2S,4R)-4-(2-((1R,3R)-1-acetoxy-3-((2S,3S)-2-((R)-1,2-dimethylpiperidine-2-carboxamido)-N-ethyl-3-methylpentanamido)-4-methylpentyl)thiazole-4-carboxamido)-5-(4-aminophenyl)-2-methylpentanoic acid], for which, in the test with DU145, the midpoint of inhibition, the IC50, lay at 0.2 nM.
`CC[C@H](C)[C@H](NC(=O)[C@H]1C[C@H](C)CCN1C)C(=O)N(CC)[C@H](C[C@@H](OC(C)=O)c1nc(C(=O)N[C@@H](Cc2ccc(N)cc2)C[C@H](C)C(=O)O)cs1)C(C)C` [Compound 1, (2S,4R)-4-(2-((1R,3R)-1-acetoxy-3-((2S,3S)-2-((2R,4R)-1,4-dimethylpiperidine-2-carboxamido)-N-ethyl-3-methylpentanamido)-4-methylpentyl)thiazole-4-carboxamido)-5-(4-aminophenyl)-2-methylpentanoic acid]: the half-inhibitory concentration (IC50) in the test on DU145 stood at 0.2 nM; with HCT116, 0.6 nM; with MB231 it was 2.5 nM.
The corresponding values for `CC[C@H](C)[C@H](NC(=O)[C@H]1C[C@H](C)CCN1C)C(=O)N(C)[C@H](C[C@@H](OC(C)=O)c1nc(C(=O)N[C@@H](Cc2ccccc2)C[C@H](C)C(=O)O)cs1)C(C)C` [Compound 5, (2S,4R)-4-(2-((1R,3R)-1-acetoxy-3-((2S,3S)-2-((2R,4R)-1,4-dimethylpiperidine-2-carboxamido)-N,3-dimethylpentanamido)-4-methylpentyl)thiazole-4-carboxamido)-2-methyl-5-phenylpentanoic acid] are 0.9 nM, 0.5 nM and 3.4 nM.
On to `CC[C@H](C)[C@H](NC(=O)[C@H]1CC(C)(C)CCN1C)C(=O)N(C)[C@H](C[C@@H](OC(C)=O)c1nc(C(=O)N[C@@H](Cc2ccccc2)C[C@H](C)C(=O)O)cs1)C(C)C` [Compound 4, (2S,4R)-4-(2-((1R,3R)-1-acetoxy-3-((2S,3S)—N,3-dimethyl-2-((R)-1,4,4-trimethylpiperidine-2-carboxamido)pentanamido)-4-methylpentyl)thiazole-4-carboxamido)-2-methyl-5-phenylpentanoic acid], for which the IC50 in the test on DU145 was found to be 1.3 nM; in the test on HCT116, 1.8 nM; in the test with MB231, 3.9 nM.

(Values after patent US9427479B2, “Tubulysin derivatives” (MedImmune LLC, priority 2014, dated 2016).)
